Holding throughout (experiment): Whole-cell patch-clamp block of mutant Kv1.5 current in HEK293 cells
What all share (format): cell-based

In experiment [1] the target is T1, Kv1.5 V505F mutant channel (Homo sapiens, UniProt P22460, V505F).
T1 construct: subcloned as a fragment back into full-length Kv1.5; expressed in transfected cells; host or cells: HEK293, transient transfection
As to the method: (§1) Stable lines of HEK293 cells expressing Kv1.5, or transient transfection of mutant Kv1.5 channels were used in all experiments. […] (Coralville, Iowa, USA), and mutants were generated using the Stratagene Quikchange kit (Stratagene, Calif., USA). […] This was added to the cells for overnight incubation after washing the media with 900 μl of MEM with 10% FBS. […] Media contained 10% bovine serum and 0.5 mg/ml geneticin for stable lines. On the day before recording, stably-expressing cells were washed with MEM, treated with trypsin/EGTA for one minute and plated on 25 mm^2 coverslips. All cell culture supplies were obtained from Invitrogen (Mississauga, ON, Canada). Control bath solution contained (in mM): 5 KCl, 135 NaCl, 2.8 sodium acetate, 1 MgCl2, 10 HEPES and 1 CaCl2, adjusted to pH 7.4 with NaOH. Patch pipettes contained (in mM): 130 KCl, 5 EGTA, 1 MgCl2, 10 HEPES, 4 Na2ATP, and 0.1 GTP, adjusted to pH 7.2 with KOH. All chemicals used to make solutions were obtained from Sigma-Aldrich (Mississauga, ON, Canada). […] (Vancouver, BC, Canada) and prepared as a stock solution (50 mM) in H2O. […] DMSO concentrations for either drug never exceeded 0.1% v/v in the final experimental solutions. Coverslips with adherent cells plated on the surface were placed in a superfusion chamber (volume 300 μl) containing the control bath solution at 22° C. Whole-cell current recording and analysis were carried out using an Axopatch 200B amplifier and pClamp10 software (Axon Instruments, CA, USA). Patch electrodes were pulled from thin-walled borosilicate glass (World Precision Instruments, FL, USA) on a horizontal micropipette puller (Sutter Instruments, CA, USA). […] Analogue capacity compensation and 80% series resistance compensation were used during whole cell measurements. Membrane potentials were not corrected for junction potentials that arise between the pipette and bath solution. […] Data were sampled at 10-20 kHz and filtered at 5 to 10 kHz. […] Data are represented as mean±SE unless otherwise specified. For significance of differences, * represents p<0.05, ** p<0.01; statistical analysis was conducted using Student's t-test (unpaired). Clampfit software (Axon Instruments, CA, USA) was used to analyze current traces. Data from each test pulse (currents in the presence of drug) were normalized to control test pulse currents obtained before drug exposure. […] IC50 is the concentration producing half-maximal inhibition; and n is the Hill coefficient.

For experiment [2], the target named is T2, Kv1.5 I502F mutant channel (Homo sapiens, UniProt P22460, I502F).
T2 construct: subcloned as a fragment back into full-length Kv1.5; expressed in transfected cells; host or cells: HEK293, transient transfection
As to the method: as §1

The target in experiment [3] is T3, Kv1.5 I502L mutant channel (Homo sapiens, UniProt P22460, I502L).
T3 construct: subcloned as a fragment back into full-length Kv1.5; expressed in transfected cells; host or cells: HEK293, transient transfection
The method, then: as §1

For experiment [4], the target named is T4, Kv1.5 I508A mutant channel (Homo sapiens, UniProt P22460, I508A).
T4 construct: subcloned as a fragment back into full-length Kv1.5; expressed in transfected cells; host or cells: HEK293, transient transfection
To be noted: for Fold change: IC50 of I508A relative to WT, vernakalant potency reduced, flecainide potency increased. As to the method: as §1

In experiment [5] the target is T5, Kv1.5 I508F mutant channel (Homo sapiens, UniProt P22460, I508F).
T5 construct: subcloned as a fragment back into full-length Kv1.5; expressed in transfected cells; host or cells: HEK293, transient transfection
As to the method: as §1

Experiment [6] concerns the target T6, Kv1.5 V505A mutant channel (Homo sapiens, UniProt P22460, V505A).
T6 construct: subcloned as a fragment back into full-length Kv1.5; expressed in transfected cells; host or cells: HEK293, transient transfection
The settings on record: for Fold change: IC50 of V505A relative to WT, vernakalant potency reduced, flecainide potency increased. The method, then:
as §1

Experiment [7] has as its target T7, Kv1.5 I502A mutant channel (Homo sapiens, UniProt P22460, I502A).
T7 construct: subcloned as a fragment back into full-length Kv1.5; expressed in transfected cells; host or cells: HEK293, transient transfection
To be noted: for Fold change: IC50 of I502A relative to WT, decrease in potency. The method, then:
as §1

Experiment [8] has as its target T8, Kv1.5 T479A mutant channel (Homo sapiens, UniProt P22460, T479A).
T8 construct: subcloned as a fragment back into full-length Kv1.5; expressed in transfected cells; host or cells: HEK293, transient transfection
The settings on record: for Fold change: IC50 of T479A relative to WT, potency increased. The method, then:
as §1

Consider two molecules from US20090053721A1, “VOLTAGE-GATED ION CHANNEL MUTANTS FOR USE IN IDENTIFYING ION CHANNEL MODULATING COMPOUNDS” (CARDIOME PHARMA CORP., priority 2007, published 2009).

SMILES strings stand for the structures. “And” between values parts separate entries of the source, which are not always exact repeats. Equal entries are not always repeated. Structures can show the parent of a compound that is named as a salt.

T1 sequence (P22460 whole entry V505F, the tested form may be a part): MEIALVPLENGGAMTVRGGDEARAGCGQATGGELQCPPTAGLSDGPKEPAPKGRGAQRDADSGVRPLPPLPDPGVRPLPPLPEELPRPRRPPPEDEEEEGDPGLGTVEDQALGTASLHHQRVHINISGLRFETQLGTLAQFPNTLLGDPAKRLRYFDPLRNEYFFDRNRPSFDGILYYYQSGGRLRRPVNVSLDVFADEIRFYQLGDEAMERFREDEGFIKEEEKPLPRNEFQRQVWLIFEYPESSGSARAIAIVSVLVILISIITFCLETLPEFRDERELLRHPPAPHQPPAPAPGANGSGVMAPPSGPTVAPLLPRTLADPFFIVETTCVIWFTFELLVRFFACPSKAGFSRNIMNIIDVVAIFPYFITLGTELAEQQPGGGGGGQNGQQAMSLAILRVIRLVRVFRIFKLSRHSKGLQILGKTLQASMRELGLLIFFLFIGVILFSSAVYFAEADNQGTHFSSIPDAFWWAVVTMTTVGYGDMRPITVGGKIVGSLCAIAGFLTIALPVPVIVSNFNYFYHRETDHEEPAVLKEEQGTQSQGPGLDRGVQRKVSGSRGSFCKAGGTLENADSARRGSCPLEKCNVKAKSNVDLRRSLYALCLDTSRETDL
T3 sequence (P22460 whole entry I502L, the tested form may be a part): as the sequence (P22460 whole entry V505F, the tested form may be a part) above, with I502L, F505V counted along it
T6 sequence (P22460 whole entry V505A, the tested form may be a part): as the sequence (P22460 whole entry V505F, the tested form may be a part) above, with F505A counted along it
T8 sequence (P22460 whole entry T479A, the tested form may be a part): as the sequence (P22460 whole entry V505F, the tested form may be a part) above, with T479A, F505V counted along it
T5 sequence (P22460 whole entry I508F, the tested form may be a part): as the sequence (P22460 whole entry V505F, the tested form may be a part) above, with F505V, I508F counted along it
T4 sequence (P22460 whole entry I508A, the tested form may be a part): as the sequence (P22460 whole entry V505F, the tested form may be a part) above, with F505V, I508A counted along it
T7 sequence (P22460 whole entry I502A, the tested form may be a part): as the sequence (P22460 whole entry V505F, the tested form may be a part) above, with I502A, F505V counted along it
T2 sequence (P22460 whole entry I502F, the tested form may be a part): as the sequence (P22460 whole entry V505F, the tested form may be a part) above, with I502F, F505V counted along it

As for `O=C(NCC1CCCCN1)c1cc(OCC(F)(F)F)ccc1OCC(F)(F)F` (stereo not drawn) [Flecainide], the Fold change in experiment [1] (IC50 of V505F relative to WT, direction differs by drug) came out at 8.93; in experiment [2] (IC50 of I502F relative to WT), 4.13; in experiment [3] (IC50 of I502L relative to WT, direction differs by drug) it was 3.55; in experiment [4] it was 5.15; in experiment [4] (listed as flecamide) it was 5.2; in experiment [5] (IC50 of I508F relative to WT, direction differs by drug) it was 1.96. The Fold change in experiment [6] was determined as 2.92; in experiment [6] (listed as flecamide) it was 3; in experiment [7] it was 2.43; in experiment [7] (listed as flecamide), 2.4; in experiment [8], 200; in experiment [8] (listed as flecamide), 238. Moreover, the half-inhibitory concentration (IC50) in experiment [1] (Kv1.5 V505F) was 4.3 µM and 4.27 µM; in experiment [2] (Kv1.5 I502F) it was 164 ± 31.4 µM; in experiment [3] (Kv1.5 I502L), 10.8 ± 1.09 µM; in experiment [4] (Kv1.5 I508A), 7.39 ± 0.92 µM; in experiment [5] (Kv1.5 I508F), 74.7 ± 5.37 µM; in experiment [6] (Kv1.5 V505A) it was 13.1 ± 3.58 µM. Besides, the half-inhibitory concentration (IC50) in experiment [7] (Kv1.5 I502A) amounted to 92 µM; in experiment [8] (Kv1.5 T479A), 0.19 ± 0.04 µM.

In the case of `COc1ccc(CCO[C@@H]2CCCC[C@H]2N2CC[C@@H](O)C2)cc1OC` [Vernakalant, 3-Pyrrolidinol, 1-[(1R,2R)-2-[2-(3,4-dimethoxyphenyl)ethoxy]cyclohexyl]-,hydrochloride, (3R)], the Hill coefficient in experiment [1] (Kv1.5 V505F) worked out at 0.96; in experiment [2] (Kv1.5 I502F) it was 0.84; in experiment [3] (Kv1.5 I502L) it was 0.96; in experiment [4] (Kv1.5 I508A), 0.87; in experiment [5] (Kv1.5 I508F), 1.23; in experiment [6] (Kv1.5 V505A), 0.95. Further, the Hill coefficient in experiment [7] (Kv1.5 I502A) was found to be 0.65; in experiment [8] (Kv1.5 T479A) it was 0.6. Besides, the “Fractional Block ± SEM” value is 0.27 ± 0.05 in experiment [1] (Kv1.5 V505F, 10 μM vernakalant); 0.10 ± 0.01 in experiment [2] (Kv1.5 I502F, 10 μM vernakalant); 0.33 ± 0.07 in experiment [3] (Kv1.5 I502L, 10 μM vernakalant); 0.21 ± 0.03 in experiment [4] (Kv1.5 I508A, 10 μM vernakalant); 0.94 ± 0.02 in experiment [5] (Kv1.5 I508F, 10 μM vernakalant); 0.21 ± 0.04 in experiment [6] (Kv1.5 V505A, 10 μM vernakalant). Further, the “Fractional Block ± SEM” value in experiment [7] (Kv1.5 I502A, 10 μM vernakalant) is recorded as 0.07 ± 0.03; in experiment [8] (Kv1.5 T479A, 10 μM vernakalant) it was 0.77 ± 0.05.

One may read the IC50 as the concentration that inhibits the measured activity by half. Low readings indicate greater potency, high ones weaker potency. The Hill coefficient is a measure of the steepness of the concentration-response curve.
